Patent US12618045B2, “Automated method for preparing retinal pigment epithelium cells” (CENTRE D'ETUDE DES CELLULES SOUCHES (CECS), priority 2019, dated 2026)

Key:
[1] = test system: hESCs (hESC line RC-0913); assay: RT-qPCR of retinal development markers during differentiation of hESCs; type: cell-based, human
Procedure: (§1) Clinical-grade hESC line RC-0913, was used and cultured in feeder free conditions using mTeSR™ Medium (StemCell technologies) and hESC qualified Matrigel (Corning). Cells were banked at passage 36 and used for RPE differentiation between passage 38 and 45. Cells were plated at 5×10^4 cells per cm^2 and grown until they reached 80 percent of confluence before switching to a differentiation medium composed of Dulbecco's modified Eagle's medium (high glucose, Thermo Fisher Scientific) supplemented with 50 μM β-mercaptoethanol, 1× minimum essential medium-nonessential amino acids (Thermo Fisher Scientific) and 20% (D0-D42) or 4% (after passage 1) of knockout serum replacement (KSR, Thermo Fisher Scientific). During all the differentiation process the medium was changed every 2/3 days.
(§2) For the referred “directed differentiation” protocol, 10 mM Nicotinamide (Sigma), 100 ng/ml Activin A
(§3) (Peprotech) and 3 μM CHIR99021 (Tocris) were added sequentially to the basal differentiation medium at specific time points (FIG. 2A).
Total RNAs were extracted using RNAeasy Plus Mini kit (Qiagen) and cDNA synthesized using SuperScript III (Invitrogen). Quantitative real-time RT-PCR was performed using a Quant Studio 12K flex (Applied Biosystems) with HiGreen qPCR Master Mix (Thermo Fisher Scientific). Experiments were performed with at least three technical replicates per plate and expression levels were normalized to 18S. Relative expression compared to hESCs gene expression levels were determined by calculating the 2-ΔΔCt.

[2] = test system: hESCs (hESC line RC-0913); assay: Immunostaining of marker proteins during differentiation of hESCs; type: cell-based, human
Procedure: as §1, §2, §3
hESC-RPE cells were grown on Matrigel-coated 96 or 24-well plates. Adherent cells were fixed in 4% PFA for 10 min at room temperature (RT) and rinsed 3 times with PBS. After 30 min in blocking solution (10% FBS in 0.1% Triton PBS) at RT, cells were incubated with primary antibodies overnight at 4° C. After 3 washes in PBS, appropriate Alexa Fluor-conjugated secondary antibodies (Invitrogen) were added at 1:500 for 1 h at RT in presence of DAPI (Invitrogen).
Images were acquired with an Axio observer Z1 microscope (Zeiss) with a Hamamatsu ORCA-flash 4.0 camera and a spinning disk unit (Yokogawa CSU-X1-A1N-E; Camera evolve, EMCCD 512) with Metamorph software or with a LSM-800 confocal microscope (Zeiss) with Zen software. Images were exported, analyzed and processed with Fiji software. […] The quantification of pigmented areas was performed after manual delimitation of culture dish areas using Fiji software. Pictures were then binarized to 8-bit images using a fixed intensity threshold and the black area fraction was measured (not herein shown).

[3] = CHIR99021 from day 14 to day 35-42

## Cc1c[nH]c(-c2cnc(NCCNc3ccc(C#N)cn3)nc2-c2ccc(Cl)cc2Cl)n1 [CHIR99021]
[1]; [3]
  MITF expression (mRNA): continuous increased expression
  VSX2 mRNA levels: acute decreased expression
[2]; day 21, CHIR99021 from day 14
  MITF+ cells: 87.5%±12.5%
  VSX2 positive cells: absence

## NC(=O)c1cccnc1 [Nicotinamide]
[1]; Nicotinamide 10 mM, first 7 days of differentiation, compared to spontaneous protocol, p<0.01
  transient expression of early eye field transcription factors SIX3 and RAX (mRNA): significantly enhanced
[1]; Nicotinamide 10 mM, first 7 days, compared to spontaneous protocol, p<0.01
  expression of pluripotency marker NANOG (mRNA): higher decrease
[2]; day 7 after Nicotinamide treatment, n=3
  cells co-expressing LHX2 and PAX6 proteins: 86.8%±4.3%

B1: Activin A: member of TGF β superfamily, second differentiating agent, 100 ng/ml (Peprotech) (protein, UniProt P08476 311-426, looked up)
Inhibin beta A chain: GLECDGKVNICCKKQFFVSFKDIGWNDWIIAPSGYHANYCEGECPSHIAGTSGSSLSFHSTVINHYRMRGHSPFANLKSCCVPTKLRPMSMLYYDDGQNIIKKDIQNMIVEECGCS
modifications: Inhibin beta A chain
[1]; Activin A day 7 to day 14
  RAX and SIX3 mRNA levels: decreased
[1]; Activin A day 7 to day 14, compared to spontaneous differentiation, p≤0.05
  expression of optic vesicle transcription factors VSX2 and MITF (mRNA): significantly increased
